Assay results as given in article PMC7307906, “Macrocyclic Modalities Combining Peptide Epitopes and Natural Product Fragments” (Journal of the American Chemical Society, 2020).

Columns and labels:
human MC1R [1] = target: T1, human MC1R (Homo sapiens, UniProt Q01726); assay: Melanocortin receptor radioligand binding (SPA, [125I]-NDP-α-MSH displacement), MC1R; details: competitive binding, mean (± SEM) of at least three independent experiments, read-out: IC50 hMC1R binding
T1 construct: expressed in transfected cells
T1 sequence (Q01726 whole entry): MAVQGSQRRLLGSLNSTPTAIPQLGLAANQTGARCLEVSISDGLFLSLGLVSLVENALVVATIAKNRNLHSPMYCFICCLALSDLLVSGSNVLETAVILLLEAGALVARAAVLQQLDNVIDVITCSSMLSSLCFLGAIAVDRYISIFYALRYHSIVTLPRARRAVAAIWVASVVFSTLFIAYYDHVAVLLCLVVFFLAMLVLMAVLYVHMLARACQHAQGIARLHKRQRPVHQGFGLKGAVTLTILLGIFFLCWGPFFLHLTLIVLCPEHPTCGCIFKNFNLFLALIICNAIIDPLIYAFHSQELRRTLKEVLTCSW

human MC3R [2] = target: T2, human MC3R (Homo sapiens, UniProt P41968); assay: Melanocortin receptor radioligand binding (SPA, [125I]-NDP-α-MSH displacement), MC3R; details: competitive binding, mean (± SEM) of at least three independent experiments, read-out: IC50 hMC3R binding
T2 construct: expressed in transfected cells
T2 sequence (P41968 whole entry): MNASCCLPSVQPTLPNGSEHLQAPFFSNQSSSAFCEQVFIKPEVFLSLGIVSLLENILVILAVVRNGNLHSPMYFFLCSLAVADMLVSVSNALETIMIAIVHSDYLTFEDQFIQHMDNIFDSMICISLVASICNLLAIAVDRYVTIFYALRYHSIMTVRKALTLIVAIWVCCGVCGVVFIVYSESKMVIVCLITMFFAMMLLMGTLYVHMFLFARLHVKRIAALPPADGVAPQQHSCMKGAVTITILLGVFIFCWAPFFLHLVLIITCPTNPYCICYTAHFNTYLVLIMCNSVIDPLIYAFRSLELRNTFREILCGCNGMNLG

human MC4R [3] = target: T3, human MC4R (Homo sapiens, UniProt P32245); assay: Melanocortin receptor radioligand binding (SPA, [125I]-NDP-α-MSH displacement), MC4R; details: competitive binding, mean (± SEM) of at least three independent experiments, read-out: IC50 hMC4R binding
T3 construct: expressed in transfected cells
T3 sequence (P32245 whole entry): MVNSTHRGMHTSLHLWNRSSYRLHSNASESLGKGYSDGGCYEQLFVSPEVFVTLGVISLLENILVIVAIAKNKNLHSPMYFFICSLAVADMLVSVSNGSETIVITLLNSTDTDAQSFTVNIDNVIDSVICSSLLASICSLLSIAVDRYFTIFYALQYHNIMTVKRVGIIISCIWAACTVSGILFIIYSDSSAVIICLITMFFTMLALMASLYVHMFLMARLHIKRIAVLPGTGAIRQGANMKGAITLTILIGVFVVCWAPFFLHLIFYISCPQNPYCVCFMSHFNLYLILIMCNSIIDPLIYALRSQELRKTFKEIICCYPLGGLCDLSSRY

human MC5R = target: T4, human MC5R (Homo sapiens, UniProt P33032); assay: Melanocortin receptor radioligand binding (SPA, [125I]-NDP-α-MSH displacement), MC5R; details: for IC50: competitive binding, [125I]-NDP-α-MSH, mean (± SEM) of at least three independent experiments, read-out: IC50 hMC5R binding
T4 construct: expressed in transfected cells; host or cells: HEK293-6E suspension cells, transient expression; membranes
T4 sequence (P33032 whole entry): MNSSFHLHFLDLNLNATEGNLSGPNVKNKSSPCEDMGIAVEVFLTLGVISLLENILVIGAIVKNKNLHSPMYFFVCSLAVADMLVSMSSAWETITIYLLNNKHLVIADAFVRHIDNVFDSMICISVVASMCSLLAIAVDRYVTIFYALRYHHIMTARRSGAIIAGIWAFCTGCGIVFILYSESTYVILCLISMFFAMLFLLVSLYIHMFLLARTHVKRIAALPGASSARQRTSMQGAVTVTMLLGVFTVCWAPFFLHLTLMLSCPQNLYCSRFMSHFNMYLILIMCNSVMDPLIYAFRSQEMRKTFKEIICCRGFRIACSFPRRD

human MC1R [4] = target: T1, human MC1R; assay: cAMP assay (LANCE) in T-Rex-293 cells expressing MC1R; type: cell-based; details: for Emax: T-REx-293, read-out: % Effect hMC1R cAMP; for EC50: cAMP assay, mean (± SEM) of at least three independent experiments, read-out: EC50 hMC1R cAMP
human MC3R [5] = target: T2, human MC3R; assay: cAMP assay (LANCE) in T-Rex-293 cells expressing MC3R; type: cell-based; details: for EC50: cAMP assay, mean (± SEM) of at least three independent experiments, read-out: EC50 hMC3R cAMP
human MC4R [6] = target: T3, human MC4R; assay: cAMP assay (LANCE) in T-Rex-293 cells expressing MC4R; type: cell-based; details: for EC50: cAMP assay, mean (± SEM) of at least three independent experiments, read-out: EC50 hMC4R cAMP
[7] = Emax (curve plateau), relative to NDP-α-MSH, NA = No Activity detected, threshold 20% effect

| Compound | IC50 (human MC1R [1]) [µM] | IC50 (human MC3R [2]) [µM] | IC50 (human MC4R [3]) [µM] | IC50 (human MC5R) [µM] | Emax (human MC1R [4]) [%] | EC50 (human MC1R [4]) [µM] | EC50 (human MC3R [5]) [µM] | EC50 (human MC4R [6]) [µM] | selectivity for MC5R against MC1R (human MC5R; ratio of binding IC50, MC1R versus MC5R) [fold] | selectivity for MC5R against MC3R (human MC5R; ratio of binding IC50, MC3R versus MC5R) [fold] | selectivity for MC5R against MC4R (human MC5R; ratio of binding IC50, MC4R versus MC5R) [fold] | % Effect hMC3R cAMP (human MC3R [5]; [7]) [%] | % Effect hMC4R cAMP (human MC4R [6]; [7]) [%] | % Effect hMC1R cAMP at 100 µM (human MC1R [4]; % effect at 100 µM, compounds not reaching an upper plateau (§)) [%] | % Effect hMC1R cAMP at 10 µM (human MC1R [4]; % effect at 10 µM, compounds not reaching an upper plateau (#)) [%] |
| --- | --- | --- | --- | --- | --- | --- | --- | --- | --- | --- | --- | --- | --- | --- | --- |
| C[C@@H]1NC(=O)[C@H](CC(N)=O)NC(=O)[C@H](Cc2ccccc2)NC(=O)[C@H](Cc2ccccc2)NC(=O)[C@H](CCCNC(=N)N)NC(=O)[C@H](Cc2ccccc2)N(C)C(=O)[C@H]2N[C@@H](c3ccc(cc3)C(=O)NCCCC[C@@H](C(=O)N[C@@H](Cc3ccc(O)cc3)C(N)=O)NC1=O)[C@H]1C(=O)N(c3ccccc3)C(=O)[C@H]12 [F2-minor, [ II-FRFFNAK ]Y] | 81 ± 3 | 85 ± 6 | 91 ± 5 | 6.5 ± 0.9 | 40 | 9.3 ± 3.6 | > 100 | > 100 | – | – | – | – | – | – | – |
| C[C@@H]1NC(=O)[C@H](CC(N)=O)NC(=O)[C@@H](Cc2ccccc2)NC(=O)[C@@H](Cc2ccccc2)NC(=O)[C@H](CCCNC(=N)N)NC(=O)[C@H](Cc2ccccc2)N(C)C(=O)[C@@H]2N[C@H](c3ccc(cc3)C(=O)NCCCC[C@@H](C(=O)N[C@@H](Cc3ccc(O)cc3)C(N)=O)NC1=O)[C@@H]1C(=O)N(C)C(=O)[C@@H]12 [G1-major, [I-FRffNAK ]Y] | > 10 | > 10 | > 10 | > 10 | 38 | 1.8 ± 0.3 | > 10 | > 10 | – | – | – | – | – | – | – |
| CN1C(=O)[C@@H]2[C@H](C1=O)[C@H]1N[C@@H]2c2ccc(cc2)C(=O)NCCCC[C@@H](C(=O)N[C@@H](Cc2ccc(O)cc2)C(N)=O)NC(=O)[C@H](CC(N)=O)NC(=O)[C@H](Cc2ccccc2)NC(=O)[C@H](Cc2ccccc2)NC(=O)[C@H](CCCNC(=N)N)NC(=O)[C@H](Cc2ccccc2)N(C)C1=O [J1-major, [ I-FRFFNK ]Y] | > 100 | > 100 | > 100 | 41 ± 9 | 51 | 17 ± 5 | > 100 | > 100 | – | – | – | – | – | – | – |
| CN1C(=O)[C@H]2N[C@@H](c3ccc(cc3)C(=O)NCCCC[C@@H](C(=O)N[C@@H](Cc3ccc(O)cc3)C(N)=O)NC(=O)[C@H](CC(N)=O)NC(=O)[C@H](Cc3ccccc3)NC(=O)[C@H](Cc3ccccc3)NC(=O)[C@H](CCCNC(=N)N)NC(=O)[C@@H]1Cc1ccccc1)[C@H]1C(=O)N(c3ccccc3)C(=O)[C@H]12 [J2-major, [ II-FRFFNK ]Y] | 32 ± 1 | 39 ± 2 | 38 ± 6 | 11 ± 1 | 46 | 6.4 ± 0.3 | > 100 | > 100 | – | – | – | – | – | – | – |
| CN1C(=O)[C@H]2N[C@@H](c3ccc(cc3)C(=O)NCCCC[C@@H](C(=O)NCC(N)=O)NC(=O)[C@H](CC(N)=O)NC(=O)[C@H](Cc3ccccc3)NC(=O)[C@H](Cc3ccccc3)NC(=O)[C@H](CCCNC(=N)N)NC(=O)[C@@H]1Cc1ccccc1)[C@H]1C(=O)N(c3ccccc3)C(=O)[C@H]12 [J3-major*, [ II-FRFFNK ]G] | 78 ± 2 | > 100 | > 100 | 54 ± 6 | 63 | 14 ± 5 | > 100 | > 100 | – | – | – | – | – | – | – |
| CN1C(=O)[C@@H]2N[C@H](c3ccc(cc3)C(=O)NCCCC[C@@H](C(=O)NCC(N)=O)NC(=O)[C@H](CC(N)=O)NC(=O)[C@H](Cc3ccccc3)NC(=O)[C@H](Cc3ccccc3)NC(=O)[C@H](CCCNC(=N)N)NC(=O)[C@@H]1Cc1ccccc1)[C@@H]1C(=O)N(c3ccccc3)C(=O)[C@@H]12 [J3-minor*, [ II-FRFFNK ]G] | 13 ± 1 | 21 ± 1 | 17 ± 2 | 6.2 ± 0.5 | – | > 100 | > 100 | > 100 | – | – | – | – | – | – | – |
| CN1C(=O)[C@@H]2N[C@H](c3ccc(cc3)C(=O)NCCCC[C@@H](C(=O)N[C@@H](Cc3ccc(O)cc3)C(N)=O)NC(=O)[C@H](CC(N)=O)NC(=O)[C@@H](Cc3ccccc3)NC(=O)[C@@H](Cc3ccccc3)NC(=O)[C@H](CCCNC(=N)N)NC(=O)[C@@H]1Cc1ccccc1)[C@@H]1C(=O)N(c3ccccc3)C(=O)[C@@H]12 [K1-major, [II-FRffNK ]Y] | 31 ± 3 | 19 ± 3 | 54 ± 4 | 4.1 | 47 | 4.1 ± 0.4 | > 100 | > 100 | 7 | 5 | 13 | – | – | – | – |
| CN1C(=O)[C@@H]2[C@H](C1=O)[C@H]1N[C@@H]2C(=O)N(C)[C@@H](Cc2ccccc2)C(=O)N[C@@H](CCCNC(=N)N)C(=O)N[C@H](Cc2ccccc2)C(=O)N[C@H](Cc2ccccc2)C(=O)N[C@@H](CC(N)=O)C(=O)N[C@H](C(=O)NCC(N)=O)CCCCNC(=O)c2ccc1cc2 [K2-minor, [I-FRffNK ]G] | > 10 | > 10 | > 10 | > 10 | – | > 10 | > 10 | > 10 | – | – | – | – | – | – | – |
| CN1C(=O)[C@@H]2N[C@H](c3ccc(cc3)C(=O)NCCCC[C@@H](C(=O)NCC(N)=O)NC(=O)[C@H](CC(N)=O)NC(=O)[C@@H](Cc3ccccc3)NC(=O)[C@@H](Cc3ccccc3)NC(=O)[C@H](CCCNC(=N)N)NC(=O)[C@@H]1Cc1ccccc1)[C@@H]1C(=O)N(c3ccccc3)C(=O)[C@@H]12 [K3-major, [II-FRffNK ]G] | > 10 | > 10 | > 10 | 4.2 ± 0.1 | 42 | > 10 | > 10 | > 10 | – | – | – | – | – | – | – |
| CN1C(=O)[C@H]2N[C@@H](c3ccc(cc3)C(=O)NCCCC[C@@H](C(=O)NCC(N)=O)NC(=O)[C@H](CC(N)=O)NC(=O)[C@@H](Cc3ccccc3)NC(=O)[C@@H](Cc3ccccc3)NC(=O)[C@H](CCCNC(=N)N)NC(=O)[C@@H]1Cc1ccccc1)[C@H]1C(=O)N(c3ccccc3)C(=O)[C@H]12 [K3-minor, [II-FRffNK ]G] | > 10 | > 10 | > 10 | > 10 | – | > 10 | > 10 | > 10 | – | – | – | – | – | – | – |
| COc1ccc(N2C(=O)[C@@H]3[C@H](C2=O)[C@H]2N[C@@H]3c3ccc(cc3)C(=O)NCCCC[C@@H](C(=O)NCC(N)=O)NC(=O)[C@H](CC(N)=O)NC(=O)[C@@H](Cc3ccccc3)NC(=O)[C@@H](Cc3ccccc3)NC(=O)[C@H](CCCNC(=N)N)NC(=O)[C@H](Cc3ccccc3)N(C)C2=O)cc1 [K4-major, [III-FRffNK ]G] | 58 ± 1 | 57 ± 1 | > 100 | 16 ± 1 | 85 | 3.9 ± 0.5 | 6.4 ± 1.1 | 3.7 ± 0.2 | – | – | – | 26 | 66 | – | – |
| COc1ccc(N2C(=O)[C@@H]3[C@H](C2=O)[C@H]2N[C@@H]3C(=O)N(C)[C@@H](Cc3ccccc3)C(=O)N[C@@H](CCCNC(=N)N)C(=O)N[C@H](Cc3ccccc3)C(=O)N[C@H](Cc3ccccc3)C(=O)N[C@@H](CC(N)=O)C(=O)N[C@H](C(=O)NCC(N)=O)CCCCNC(=O)c3ccc2cc3)cc1 [K4-minor, [III-FRffNK ]G] | > 100 | > 100 | > 100 | 91 ± 3 | – | > 100 | > 100 | > 100 | – | – | – | – | – | 23 | – |
| COc1cc(N2C(=O)[C@@H]3[C@H](C2=O)[C@H]2N[C@@H]3c3ccc(cc3)C(=O)NCCCC[C@@H](C(=O)NCC(N)=O)NC(=O)[C@H](CC(N)=O)NC(=O)[C@@H](Cc3ccccc3)NC(=O)[C@@H](Cc3ccccc3)NC(=O)[C@H](CCCNC(=N)N)NC(=O)[C@H](Cc3ccccc3)N(C)C2=O)cc(OC)c1OC [K5-major, [XI-FRffNK ]G] | > 10 | > 10 | > 10 | > 10 | – | > 10 | > 10 | > 10 | – | – | – | – | – | – | – |
| CN1C(=O)[C@H]2N[C@@H](c3ccc(cc3)C(=O)NCCCC[C@@H](C(=O)N[C@@H](Cc3ccc(O)cc3)C(N)=O)NC(=O)[C@H](Cc3ccccc3)NC(=O)[C@H](Cc3ccccc3)NC(=O)[C@H](CCCNC(=N)N)NC(=O)[C@@H]1Cc1ccccc1)[C@H]1C(=O)N(c3ccccc3)C(=O)[C@H]12 [N1-major*, [II-FRFFK ]Y] | > 10 | > 10 | > 10 | > 10 | – | > 10 | > 10 | > 10 | – | – | – | – | – | – | 33 |
| CN1C(=O)[C@H]2N[C@@H](c3ccc(cc3)C(=O)NCCCC[C@@H](C(=O)NCC(N)=O)NC(=O)[C@H](Cc3ccccc3)NC(=O)[C@H](Cc3ccccc3)NC(=O)[C@H](CCCNC(=N)N)NC(=O)[C@@H]1Cc1ccccc1)[C@H]1C(=O)N(c3ccccc3)C(=O)[C@H]12 [N2-major*, [II-FRFFK ]G] | > 100 | > 100 | > 100 | 38 ± 2 | 46 | 14 ± 4 | > 100 | > 100 | – | – | – | – | – | – | – |
